Data on 39 compounds can be found in patent publication US12581252B2, “Substituted pyrrolo[3,4-b]pyridines as PI3K-α inhibitors” (Relay Therapeutics, Inc., priority 2020, dated 2026).

Bounds are passed on as bounds.

Sequence of H1047R PIK3CA enzyme (P42336 whole entry H1047R): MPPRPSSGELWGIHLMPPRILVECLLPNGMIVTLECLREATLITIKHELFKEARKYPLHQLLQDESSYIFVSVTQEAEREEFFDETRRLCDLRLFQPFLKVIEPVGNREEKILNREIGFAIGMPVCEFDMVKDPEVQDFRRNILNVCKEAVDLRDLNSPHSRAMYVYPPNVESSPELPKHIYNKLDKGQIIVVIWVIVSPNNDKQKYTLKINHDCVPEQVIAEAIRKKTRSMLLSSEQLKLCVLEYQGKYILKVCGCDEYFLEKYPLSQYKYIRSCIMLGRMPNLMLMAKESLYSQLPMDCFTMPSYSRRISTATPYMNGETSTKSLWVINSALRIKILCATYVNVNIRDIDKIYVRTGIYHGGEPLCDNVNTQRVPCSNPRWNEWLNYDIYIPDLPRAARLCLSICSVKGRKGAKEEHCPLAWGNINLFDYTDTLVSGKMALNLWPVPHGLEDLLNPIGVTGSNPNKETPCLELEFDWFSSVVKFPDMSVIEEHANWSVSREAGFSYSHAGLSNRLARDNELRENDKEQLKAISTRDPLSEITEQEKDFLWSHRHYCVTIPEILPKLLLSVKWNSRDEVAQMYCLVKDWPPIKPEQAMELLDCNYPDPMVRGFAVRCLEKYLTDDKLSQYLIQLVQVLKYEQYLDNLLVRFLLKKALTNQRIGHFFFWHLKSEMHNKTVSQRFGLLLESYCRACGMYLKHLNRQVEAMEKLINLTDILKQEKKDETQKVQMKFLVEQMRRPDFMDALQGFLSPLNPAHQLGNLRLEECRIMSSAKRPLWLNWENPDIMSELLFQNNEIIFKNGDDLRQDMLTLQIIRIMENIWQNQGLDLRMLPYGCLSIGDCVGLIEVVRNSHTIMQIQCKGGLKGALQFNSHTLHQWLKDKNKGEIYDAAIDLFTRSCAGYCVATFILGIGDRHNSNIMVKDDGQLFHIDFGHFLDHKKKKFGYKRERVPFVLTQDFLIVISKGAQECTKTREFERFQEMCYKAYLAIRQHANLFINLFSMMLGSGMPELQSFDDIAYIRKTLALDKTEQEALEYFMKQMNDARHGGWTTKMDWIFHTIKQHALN
Sequence of H1047R PIK3CA enzyme (P27986 whole entry partner): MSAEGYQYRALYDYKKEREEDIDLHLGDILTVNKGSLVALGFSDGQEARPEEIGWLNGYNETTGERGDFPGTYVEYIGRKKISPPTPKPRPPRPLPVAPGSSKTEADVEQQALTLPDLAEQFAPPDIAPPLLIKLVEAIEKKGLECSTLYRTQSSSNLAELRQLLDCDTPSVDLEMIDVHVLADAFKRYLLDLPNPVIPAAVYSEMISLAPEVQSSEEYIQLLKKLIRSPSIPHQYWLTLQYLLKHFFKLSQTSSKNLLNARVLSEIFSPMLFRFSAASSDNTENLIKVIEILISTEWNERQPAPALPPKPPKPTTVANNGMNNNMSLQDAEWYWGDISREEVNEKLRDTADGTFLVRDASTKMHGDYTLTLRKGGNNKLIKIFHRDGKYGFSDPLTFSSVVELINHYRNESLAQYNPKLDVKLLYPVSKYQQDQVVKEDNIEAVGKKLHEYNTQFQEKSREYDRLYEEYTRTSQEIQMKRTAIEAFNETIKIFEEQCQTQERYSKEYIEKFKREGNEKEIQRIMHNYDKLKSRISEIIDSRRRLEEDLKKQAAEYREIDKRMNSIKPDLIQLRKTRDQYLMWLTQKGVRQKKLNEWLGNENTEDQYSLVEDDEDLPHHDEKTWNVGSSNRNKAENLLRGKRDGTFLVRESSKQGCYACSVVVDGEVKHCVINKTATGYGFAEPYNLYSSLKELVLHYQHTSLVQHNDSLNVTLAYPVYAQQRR

The assay has as its target H1047R PIK3CA enzyme (Homo sapiens, UniProt P42336, H1047R). The assay can be described thus: ADP-Glo Biochemical PIK3CA Kinase Assay. The method, then:
Compounds to be assayed were plated in 16 doses of 1:2 serial dilutions (20 nL volume each well) on a 1536-well plate, and the plate warmed to room temperature. […] To the well was added 1 μL of 200 μM ATP and 20 μM of diC8-PIP2 in Substrate Assay Buffer (50 mM HEPES pH7.4, 50 mM NaCl, 5 mM DTT and 0.03% CHAPS) to start the reaction, and the plate was shaken for 10 seconds, then spun briefly at 1500 rpm, and then incubated for 60 minutes at room temperature. The reaction was stopped by adding 2 μL of ADP-Glo reagent (Promega), and spinning briefly at 1500 rpm, and then incubating for 40 minutes. ADP-Glo Detection reagent (Promega) was added and the plate spun briefly at 1500 rpm, then incubated for 30 minutes.
(In general: ADP-Glo first removes unused ATP, then detects ADP through luciferase.)
The IC50 is the concentration at which inhibition is half-maximal. A lower IC50 goes with greater potency in that assay. In the case of `Cc1ccccc1C1NC(=O)c2cc(C(O)CO)cc(NC(=O)c3csc4ccccc34)c21` (mixture of isomers) [Compound I-139, N-[6-(1,2-Dihydroxyethyl)-3-(2-methylphenyl)-1-oxo-2,3-dihydro-1H-isoindol-4-yl]-1-benzothiophene-3-carboxamide], the 50% inhibitory concentration (IC50) was not above 0.1 µM.
For `O=C1NC(c2cc(F)ccc2Cl)c2c(NC(=O)N3CCCC(C(F)(F)F)C3)cc(Br)cc21` (mixture of isomers) [Compound I-432] the value was 0.5 to 1 µM; for `O=C1NC(c2cc(F)ccc2Cl)c2c(NC(=O)C3CCCC(C(F)(F)F)C3)cc(Br)cc21` (mixture of isomers) [Compound I-1323], 0.1 to 0.5 µM; for `CN1CC(COc2cc(NC(=O)c3cc(F)cc(C(F)(F)F)c3)c3c(c2)C(=O)NC3c2cc(F)ccc2Cl)CC1=O` (mixture of isomers) [Compound I-1348], not above 0.1 µM.
As for `CC1(C(=O)Nc2cc(Br)cc3c2C(c2cc(F)ccc2Cl)NC3=O)CCCC(C(F)(F)F)C1` (mixture of isomers) [Compound I-1358], the figure is 0.1 to 0.5 µM; as for `Cn1nccc1C(F)c1cc(NC(=O)c2cc(F)cc(C(F)(F)F)c2)c2c(c1)C(=O)NC2c1cc(F)ccc1Cl` (mixture of isomers) [Compound I-1379], not above 0.1 µM; as for `CC(=O)N1CCCCC1C(=O)Nc1cc(-c2ccc3ncnn3c2)cc2c1C(c1cc(F)ccc1Cl)NC2=O` (mixture of isomers) [Compound I-1804], 10 to 100 µM.
As for `O=C1NC(c2cc(F)ccc2Cl)c2c(NC(=O)C3CCCC(C(F)(F)F)C3)cc(-c3ccc4ncnn4c3)cc21` (mixture of isomers) [Compound I-1816], the figure is not above 0.1 µM.
Compound `O=C1NC(c2cc(F)ccc2Cl)c2c(NC(=O)C3COCCN3)cc(-c3ccc4ncnn4c3)cc21` (mixture of isomers) [Compound I-1991] yielded an IC50 of 10 to 100 µM.
`O=C1NC(c2cc(F)ccc2Cl)c2c(NC(=O)C3CCCC(C(F)(F)F)N3)cc(-c3ccc4ncnn4c3)cc21` (mixture of isomers) [Compound I-1992] showed an IC50 of 1 to 10 µM.
Compound `COC1CCCC(C(=O)Nc2cc(-c3ccc4ncnn4c3)cc3c2C(c2cc(F)ccc2Cl)NC3=O)C1` (mixture of isomers) [Compound I-2037] returned a concentration for half-maximal inhibition (IC50) of 10 to 100 µM.
As for `O=C1NC(c2cc(F)ccc2Cl)c2c(NC(=O)C3CNCC(C(F)(F)F)C3)cc(-c3ccc4ncnn4c3)cc21` (mixture of isomers) [Compound I-2051], the figure is 10 to 100 µM; as for `O=C1NC(c2cc(F)ccc2Cl)c2c(NC(=O)C3(O)CCCC(C(F)(F)F)C3)cccc21` (mixture of isomers) [Compound I-2088], 10 to 100 µM.
As for `CC(c1nn[nH]c1C(=O)Nc1cccc2c1C(c1cc(F)ccc1Cl)NC2=O)C(F)(F)F` (mixture of isomers) [Compound I-2180], the figure is 10 to 100 µM; as for `C=CC(CC(=O)Nc1cccc2c1C(c1cc(F)ccc1Cl)NC2=O)C(C)C(F)(F)F` (mixture of isomers) [Compound I-2195], 1 to 10 µM; as for `CC(C(CO)CC(=O)Nc1cccc2c1C(c1cc(F)ccc1Cl)NC2=O)C(F)(F)F` (mixture of isomers) [Compound I-2197], 10 to 100 µM.
As for `O=C(Nc1cccc2c1C(C1CCCC(O)C1)NC2=O)c1cc(F)cc(C(F)(F)F)c1` (mixture of isomers) [Compound I-2224], the figure is 10 to 100 µM.
The compound `O=C(Nc1cccc2c1C(C1CCCC(O)C1)NC2=O)c1cc(F)cc(C(F)(F)F)c1` (mixture of isomers) [Compound I-2226] registered a concentration for half-maximal inhibition (IC50) of 10 to 100 µM.
As for `O=C(Nc1cccc2c1C(C1CCCC(O)C1)NC2=O)c1cc(F)cc(C(F)(F)F)c1` (mixture of isomers) [Compound I-2227], the figure is 10 to 100 µM.
In turn, `O=C1NC(c2cc(F)ccc2Cl)c2c(NC(=O)N3c4ccccc4C(O)C34CC4)cccc21` (mixture of isomers) [Compound I-2280] yielded a concentration for half-maximal inhibition (IC50) of 10 to 100 µM.
For `O=C1NC(c2cc(F)ccc2Cl)c2c(NC(=O)C3CCc4ccccc4C3)cccc21` (mixture of isomers) [Compound I-2283], the IC50 lay in the range of 10 to 100 µM.
As for `O=C1NC(c2cc(F)ccc2Cl)c2c(NC(=O)N3CC(CO)c4ccccc43)cccc21` (mixture of isomers) [Compound I-2314], the figure is 1 to 10 µM; as for `O=C1NC(c2cc(F)ccc2Cl)c2c(NC(=O)C3CCCc4ccccc4C3)cccc21` (mixture of isomers) [Compound I-2375], 10 to 100 µM; as for `O=C1NC(c2cc(F)ccc2Cl)c2c(NC(=O)N3CC(O)c4cc(Cl)ccc43)cccc21` (mixture of isomers) [Compound I-2376], 1 to 10 µM.
As for `CC(C)N1C[C@H](O)C[C@H]1C(=O)Nc1cccc2c1C(c1cc(F)ccc1Cl)NC2=O` (mixture of isomers) [Compound I-2392], the figure is 10 to 100 µM.
In the case of `CCC1C(C)CCN1C(=O)Nc1cccc2c1C(c1cc(F)ccc1Cl)NC2=O` (mixture of isomers) [Compound I-2394], the half-maximal inhibitory concentration (IC50) fell in the range of 1 to 10 µM.
The compound `CCC1CCCN1C(=O)Nc1cccc2c1C(c1cc(F)ccc1Cl)NC2=O` (mixture of isomers) [Compound I-2395] yielded a half-maximal inhibitory concentration (IC50) of 1 to 10 µM.
Turning to `CC(C)C1CCCN1C(=O)Nc1cccc2c1C(c1cc(F)ccc1Cl)NC2=O` (mixture of isomers) [Compound I-2396], the 50% inhibitory concentration (IC50) lay in the range of 1 to 10 µM.
As for `CC(N1C[C@H](O)C[C@H]1C(=O)Nc1cccc2c1C(c1cc(F)ccc1Cl)NC2=O)C(F)(F)F` (mixture of isomers) [Compound I-2407], the figure is 10 to 100 µM; as for `N#C[C@H]1CCN(C(=O)Nc2cc(-c3ccc4ncnn4c3)cc3c2C(c2cc(F)ccc2Cl)NC3=O)C1` (mixture of isomers) [Compound I-2415], 10 to 100 µM.
As for `N#C[C@@H]1CCN(C(=O)Nc2cc(-c3ccc4ncnn4c3)cc3c2C(c2cc(F)ccc2Cl)NC3=O)C1` (mixture of isomers) [Compound I-2416], the figure is 10 to 100 µM; as for `CC(C)C1CCN(C(=O)Nc2cccc3c2C(c2cc(F)ccc2Cl)NC3=O)C1` (mixture of isomers) [Compound I-2419], 10 to 100 µM.
Turning to `CC(C1CCN(C(=O)Nc2cccc3c2C(c2cc(F)ccc2Cl)NC3=O)C1)C(F)(F)F` (mixture of isomers) [Compound I-2421], the IC50 lay within 10 to 100 µM.
In turn, `Cc1ccccc1C1NC(=O)c2cccc(NC(=O)N3CCNC(C(F)(F)F)C3)c21` (racemic) [Compound I-60] had an IC50 of 10 to 100 µM.
As for `Cc1ccccc1C1NC(=O)c2cc([C@@H](C)NC(=O)OC(C)(C)C)cc(NC(=O)c3csc4ccccc34)c21` (mixture of isomers) [Compound I-89], the figure is 0.1 to 0.5 µM; as for `Cc1ccccc1C1NC(=O)c2cc([C@@H](C)N)cc(NC(=O)c3csc4ccccc34)c21` (mixture of isomers) [Compound I-90], not above 0.1 µM.
In the case of `O=C(Nc1cc(N[C@H]2C[C@@H](O)C2)cc2c1C(c1cc(F)ccc1Cl)NC2=O)c1cc(F)cc(C(F)(F)F)c1` (mixture of isomers) [Compound I-478], the 50% inhibitory concentration (IC50) is not above 0.1 µM.
As for `O=C1NC(c2cc(F)ccc2Cl)c2c(NC(=O)N3CCCC(c4ccccc4)C3)cc(Br)cc21` (racemic) [Compound I-597], the figure is 1 to 10 µM; as for `O=C1NC(c2cc(F)ccc2Cl)c2c(NC(=O)N3CCC(c4ccccc4)C3)cc(Br)cc21` (racemic) [Compound I-598], 1 to 10 µM.
